Tests used:
A549 [1] = experiment: Cytotoxicity against human A549 cells assessed as reduction in cell survival after 72 hrs by MTT assay; type: functional, cell-based; settings: dose 0.137-100 µM
A549 [2] = experiment: Induction of cell cycle arrest in human A549 cells assessed as accumulation at S phase at 5 uM incubated for 24 hrs by propidium iodide staining based flow cytometry (reference value: 27.97 %); type: functional
A549 [3] = experiment: Induction of cell cycle arrest in human A549 cells assessed as accumulation at G2 phase at 5 uM incubated for 24 hrs by propidium iodide staining based flow cytometry (reference value: 7.56 %); type: functional
A549 [4] = experiment: Cytotoxicity against human A549 cells assessed as inhibition rate at 100 uM after 72 hrs by MTT assay relative to control; type: functional
A549 [5] = experiment: Cytotoxicity against human A549 cells assessed as inhibition rate at 33.33 uM after 72 hrs by MTT assay relative to control; type: functional
A549 [6] = experiment: Induction of cell cycle arrest in human A549 cells assessed as accumulation at G0/G1 phase at 5 uM incubated for 24 hrs by propidium iodide staining based flow cytometry (reference value: 64.47 %); type: functional
A549 [7] = experiment: Cytotoxicity against human A549 cells assessed as inhibition rate at 3.704 uM after 72 hrs by MTT assay relative to control; type: functional
A549 [8] = experiment: Cytotoxicity against human A549 cells assessed as inhibition rate at 11.11 uM after 72 hrs by MTT assay relative to control; type: functional
A549 [9] = experiment: Cytotoxicity against human A549 cells assessed as inhibition rate at 1.234 uM after 72 hrs by MTT assay relative to control; type: functional
A549 [10] = experiment: Cytotoxicity against human A549 cells assessed as inhibition rate at 0.411 uM after 72 hrs by MTT assay relative to control; type: functional
[11] = biological target: Hepatocyte growth factor receptor (Homo sapiens, UniProt P08581); experiment: Inhibition of c-Met (unknown origin) by mobility shift assay
Hepatocyte growth factor receptor, sequence (P08581 whole entry): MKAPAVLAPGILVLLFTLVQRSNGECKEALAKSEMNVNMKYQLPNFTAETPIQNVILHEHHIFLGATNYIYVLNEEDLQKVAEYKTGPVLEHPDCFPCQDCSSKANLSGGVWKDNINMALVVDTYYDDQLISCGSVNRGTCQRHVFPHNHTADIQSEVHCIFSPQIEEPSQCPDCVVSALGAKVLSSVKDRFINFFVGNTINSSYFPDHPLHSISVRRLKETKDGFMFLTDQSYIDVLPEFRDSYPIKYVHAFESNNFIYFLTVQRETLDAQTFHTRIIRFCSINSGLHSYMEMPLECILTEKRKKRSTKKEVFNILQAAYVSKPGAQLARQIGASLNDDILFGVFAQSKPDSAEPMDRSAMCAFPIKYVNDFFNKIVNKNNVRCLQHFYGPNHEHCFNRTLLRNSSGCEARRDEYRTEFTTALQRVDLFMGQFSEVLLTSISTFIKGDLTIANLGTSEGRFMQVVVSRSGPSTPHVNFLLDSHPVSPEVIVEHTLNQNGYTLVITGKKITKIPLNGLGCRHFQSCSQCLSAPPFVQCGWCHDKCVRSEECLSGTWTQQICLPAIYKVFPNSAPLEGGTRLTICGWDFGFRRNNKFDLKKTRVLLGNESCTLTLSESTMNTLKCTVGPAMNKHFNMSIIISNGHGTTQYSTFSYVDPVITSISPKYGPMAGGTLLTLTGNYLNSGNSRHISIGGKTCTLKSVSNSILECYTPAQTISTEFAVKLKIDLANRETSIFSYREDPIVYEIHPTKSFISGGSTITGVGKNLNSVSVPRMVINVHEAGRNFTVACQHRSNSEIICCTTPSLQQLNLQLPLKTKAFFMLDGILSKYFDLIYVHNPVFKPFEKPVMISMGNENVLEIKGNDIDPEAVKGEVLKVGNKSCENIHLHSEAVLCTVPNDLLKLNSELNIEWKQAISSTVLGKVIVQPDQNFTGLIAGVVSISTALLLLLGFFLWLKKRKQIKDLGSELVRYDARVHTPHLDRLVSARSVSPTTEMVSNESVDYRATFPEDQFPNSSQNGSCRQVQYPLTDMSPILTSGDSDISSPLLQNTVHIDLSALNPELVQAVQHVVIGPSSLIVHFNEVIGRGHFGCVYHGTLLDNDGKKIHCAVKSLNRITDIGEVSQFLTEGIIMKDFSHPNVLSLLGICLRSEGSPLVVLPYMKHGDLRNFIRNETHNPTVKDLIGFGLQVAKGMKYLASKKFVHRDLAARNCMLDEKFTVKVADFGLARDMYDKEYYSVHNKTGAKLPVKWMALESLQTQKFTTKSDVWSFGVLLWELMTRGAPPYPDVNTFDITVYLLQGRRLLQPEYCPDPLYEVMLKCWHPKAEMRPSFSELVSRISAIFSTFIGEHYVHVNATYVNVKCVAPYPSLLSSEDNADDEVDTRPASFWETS

A549 [12] = experiment: Cytotoxicity against human A549 cells assessed as inhibition rate at 0.137 uM after 72 hrs by MTT assay relative to control; type: functional
MCF7 = experiment: Cytotoxicity against human MCF7 cells after 72 hrs by MTT assay; type: functional, cell-based
A549 [13] = experiment: Cytotoxicity against human A549 cells after 72 hrs by MTT assay; type: functional, cell-based
HeLa = experiment: Cytotoxicity against human HeLa cells after 72 hrs by MTT assay; type: functional, cell-based
[14] = Homo sapiens, MCF7, 72 h, read-out: IC50
[15] = Homo sapiens, A549, 72 h, read-out: IC50

| Structure (SMILES) | IC50 (MCF7; [14]) [µM] | IC50 (A549 [13]; [15]) [µM] | IC50 (HeLa) [µM] | also measured |
| --- | --- | --- | --- | --- |
| O=C(Nc1ccc(Oc2ncnc3[nH]ccc23)c(F)c1)c1cc2cccnc2n(-c2ccc(F)cc2)c1=O | 9.23 | 5.29 | 3.72 | Activity (A549 [1]): Dose-dependent effect; Activity (A549 [2]): 21.11%; Activity (A549 [3]): 5.43%; inhibition at 100 µM (A549 [4]): 90.5%; inhibition at 33.33 µM (A549 [5]): 80.6%; Activity (A549 [6]): 73.46%; inhibition at 3.704 µM (A549 [7]): 42.3%; inhibition at 11.11 µM (A549 [8]): 54.5%; inhibition at 1.234 µM (A549 [9]): 23.4%; inhibition at 0.411 µM (A549 [10]): 18.1%; IC50 [11]: 0.612 µM; inhibition at 0.137 µM (A549 [12]): 12.7% |
| O=C(Nc1ccc(Oc2ncnc3[nH]ccc23)c(F)c1)c1cc2cccnc2n(-c2ccccc2)c1=O | 45 | 45.5 | 36.9 |  |
| Cn1ccc2c(Oc3ccc(NC(=O)c4cc5cccnc5n(-c5ccc(C(F)(F)F)c(Cl)c5)c4=O)cc3)ncnc21 |  |  | 289 | IC50 (MCF7; mcf7): Not Active; IC50 (A549 [13]; a549): Not Active |
| Cn1ccc2c(Oc3ccc(NC(=O)c4cc5cccnc5n(-c5ccc(C(F)(F)F)c(Cl)c5)c4=O)cc3F)ncnc21 |  | 320 | 156 | IC50 (MCF7; mcf7): Not Active |
| CN1CCN(C2CCN(C(=O)Nc3cc(Oc4ccc(NC(=O)C5(C(=O)Nc6ccc(F)cc6)CC5)c(F)c4)ccn3)CC2)CC1 [GOLVATINIB] | 15.4 | 7.7 | 4.23 | Activity (A549 [2]): 19.82%; Activity (A549 [3]): 6.53%; inhibition at 100 µM (A549 [4]): 85.1%; inhibition at 33.33 µM (A549 [5]): 76.5%; Activity (A549 [6]): 73.65%; inhibition at 3.704 µM (A549 [7]): 35.3%; inhibition at 11.11 µM (A549 [8]): 47.5%; inhibition at 1.234 µM (A549 [9]): 21.4%; inhibition at 0.411 µM (A549 [10]): 17.2%; inhibition at 0.137 µM (A549 [12]): 13.7% |
| Cn1ccc2c(Oc3ccc(NC(=O)c4cc5cccnc5n(-c5ccc(Br)cc5)c4=O)cc3F)ncnc21 | 59.4 | 42.2 | 33.8 |  |
| Cn1ccc2c(Oc3ccc(NC(=O)c4cc5cccnc5n(-c5ccccc5)c4=O)cc3)ncnc21 | 88.4 | 66.2 | 59.8 |  |
| O=C(Nc1ccc(Oc2ncnc3[nH]ccc23)c(F)c1)c1cc2cccnc2n(-c2ccc(C(F)(F)F)cc2Cl)c1=O | 214 | 283 | 96.8 |  |
| Cn1ccc2c(Oc3ccc(NC(=O)c4cc5cccnc5n(-c5ccc(F)cc5)c4=O)cc3F)ncnc21 | 11.9 | 7.32 | 4.25 | IC50 [11]: 0.701 µM |
| COc1ccc(-n2c(=O)c(C(=O)Nc3ccc(Oc4ncnc5c4ccn5C)cc3)cc3cccnc32)cc1 | 105 | 83.2 | 65.8 |  |
| Cn1ccc2c(Oc3ccc(NC(=O)c4cc5cccnc5n(-c5ccc(Cl)cc5)c4=O)cc3F)ncnc21 | 75 | 55.5 | 43.9 | IC50 [11]: 3.79 µM |
| O=C(Nc1ccc(Oc2ncnc3[nH]ccc23)c(F)c1)c1cc2cccnc2n(-c2ccc(Cl)cc2)c1=O | 45 | 35.5 | 23.9 | IC50 [11]: 1.18 µM |
| Cn1ccc2c(Oc3ccc(NC(=O)c4cc5cccnc5n(-c5ccc(Cl)cc5)c4=O)cc3)ncnc21 | 95 | 75.5 | 49.9 |  |
| Cn1ccc2c(Oc3ccc(NC(=O)c4cc5cccnc5n(-c5ccc(C(F)(F)F)cc5Cl)c4=O)cc3F)ncnc21 |  |  | 170 | IC50 (MCF7; mcf7): Not Active; IC50 (A549 [13]; a549): Not Active |
| Cn1ccc2c(Oc3ccc(NC(=O)c4cc5cccnc5n(-c5ccc(C(F)(F)F)cc5Cl)c4=O)cc3)ncnc21 |  | 364 | 174 | IC50 (MCF7; mcf7): Not Active |
| O=C(Nc1ccc(Oc2ncnc3[nH]ccc23)c(F)c1)c1cc2cccnc2n(-c2ccc(Br)cc2F)c1=O | 102 | 218 | 87.8 |  |
| O=C(Nc1ccc(Oc2ncnc3[nH]ccc23)c(F)c1)c1cc2cccnc2n(-c2ccc(Br)cc2)c1=O | 27 | 27.3 | 19.9 |  |
| Cn1ccc2c(Oc3ccc(NC(=O)c4cc5cccnc5n(-c5ccccc5)c4=O)cc3F)ncnc21 | 73.4 | 63.2 | 51.8 |  |
| Cn1ccc2c(Oc3ccc(NC(=O)c4cc5cccnc5n(-c5ccc(Br)cc5)c4=O)cc3)ncnc21 | 79.4 | 52.2 | 43.8 |  |
